The record followed here is ChEMBL document CHEMBL1131717, “Uncarinic acids: phospholipase Cgamma1 inhibitors from hooks of Uncaria rhynchophylla” (Bioorg Med Chem Lett, 1999).

Values after ≈ are worked out from the molar mass of the structure shown.

The test system of test [1] is HCT-15. The test is described as follows: Growth inhibitory effect of compound was measured on HCT-15 human colon adenocarcinoma cancer cell line. In kind it is functional, cell-based.
For test [2], the system named is MCF7. The test is described as follows: Growth inhibitory effect of compound was measured on MCF-7 human breast adenocarcinoma cancer cell line. The format is functional, cell-based.
For test [3], the target named is T1, 1-phosphatidylinositol 4,5-bisphosphate phosphodiesterase gamma-1 (Homo sapiens, UniProt P19174).
T1 sequence (P19174 whole entry): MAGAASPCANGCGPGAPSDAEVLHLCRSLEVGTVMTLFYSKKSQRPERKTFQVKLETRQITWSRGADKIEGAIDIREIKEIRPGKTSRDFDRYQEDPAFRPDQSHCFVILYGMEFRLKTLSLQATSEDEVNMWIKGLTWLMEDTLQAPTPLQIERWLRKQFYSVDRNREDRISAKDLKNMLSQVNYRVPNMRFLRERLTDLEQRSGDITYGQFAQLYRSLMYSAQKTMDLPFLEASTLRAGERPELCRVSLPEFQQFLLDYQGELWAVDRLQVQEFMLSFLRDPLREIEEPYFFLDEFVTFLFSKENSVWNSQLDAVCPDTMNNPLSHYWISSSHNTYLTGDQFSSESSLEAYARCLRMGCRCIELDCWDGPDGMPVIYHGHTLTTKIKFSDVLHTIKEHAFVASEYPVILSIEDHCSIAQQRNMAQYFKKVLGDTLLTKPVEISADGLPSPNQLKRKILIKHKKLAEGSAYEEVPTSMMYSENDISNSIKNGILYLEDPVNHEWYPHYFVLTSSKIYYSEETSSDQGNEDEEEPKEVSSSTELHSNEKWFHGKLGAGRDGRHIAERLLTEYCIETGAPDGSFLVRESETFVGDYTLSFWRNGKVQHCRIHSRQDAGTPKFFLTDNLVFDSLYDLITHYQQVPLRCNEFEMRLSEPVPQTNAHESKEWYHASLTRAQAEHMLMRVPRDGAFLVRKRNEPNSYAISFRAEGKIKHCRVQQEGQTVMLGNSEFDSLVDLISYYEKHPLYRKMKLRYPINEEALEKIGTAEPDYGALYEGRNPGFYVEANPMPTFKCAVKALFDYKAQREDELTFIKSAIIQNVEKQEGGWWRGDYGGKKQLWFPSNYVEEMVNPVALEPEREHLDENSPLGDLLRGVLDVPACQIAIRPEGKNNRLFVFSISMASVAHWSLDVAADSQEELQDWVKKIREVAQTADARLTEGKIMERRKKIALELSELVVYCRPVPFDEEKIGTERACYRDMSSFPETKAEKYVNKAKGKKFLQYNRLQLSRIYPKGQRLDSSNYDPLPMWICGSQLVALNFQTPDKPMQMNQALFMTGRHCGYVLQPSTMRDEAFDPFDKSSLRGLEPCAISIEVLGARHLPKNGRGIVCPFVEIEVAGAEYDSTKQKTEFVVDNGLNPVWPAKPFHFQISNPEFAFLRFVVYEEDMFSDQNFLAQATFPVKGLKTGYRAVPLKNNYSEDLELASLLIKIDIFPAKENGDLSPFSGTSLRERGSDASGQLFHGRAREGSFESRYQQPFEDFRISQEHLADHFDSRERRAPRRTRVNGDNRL
The test is described as follows: Inhibitory concentration was evaluated against phospholipase C-gamma1.

Test [4] concerns HT1197. In words: Growth inhibitory effect of compound was measured on HT1197 human bladder adenocarcinoma cancer cell line. The format is functional, cell-based.
The test system of test [5] is A549. The test is described as follows: Growth inhibitory effect of compound was measured on A-549 human lung adenocarcinoma cancer cell line. The format is functional, cell-based.

On to `COc1cc(/C=C\C(=O)OC[C@@]23CC[C@@]4(C(=O)O)CCC(C)(C)C[C@H]4C2=CCC2[C@@]4(C)CC[C@H](O)C(C)(C)C4CC[C@]23C)ccc1O` (stereo not given in full), for which the 50% inhibitory concentration (IC50) – broadly, the concentration that inhibits the measured activity by half – in test [1] is 1.44 µg/mL (≈ 2.22 µM); in test [2], 2.59 µg/mL (≈ 3.99 µM); in test [3], 44.6 µM; in test [4] it was 2.34 µg/mL (≈ 3.61 µM); in test [5] it was 1.79 µg/mL (≈ 2.76 µM).
Regarding `COc1cc(/C=C/C(=O)OC[C@@]23CC[C@@]4(C(=O)O)CCC(C)(C)C[C@H]4C2=CCC2[C@@]4(C)CC[C@H](O)C(C)(C)C4CC[C@]23C)ccc1O` (stereo not given in full), the IC50 was determined as 1.41 µg/mL (≈ 2.17 µM) in test [1]; 2.03 µg/mL (≈ 3.13 µM) in test [2]; 35.7 µM in test [3]; 3.53 µg/mL (≈ 5.44 µM) in test [4]; 0.73 µg/mL (≈ 1.13 µM) in test [5].
